test system: Avena fatua (AVEFA); test: Example A post-emergence herbicidal activity, glasshouse pot test; assay type: in vivo; conditions: 360 h, rate 125 g/ha, evaluated 15 days after spraying, read-out: Post-emergence activity AVEFA (100=total damage to plant; 0=no damage to plant)
Description: (§1) Seeds of a variety of test species were sown in standard soil in pots. After cultivation for one day (pre-emergence) or after 10 days cultivation (post-emergence) under controlled conditions in a glasshouse, the plants were sprayed with an aqueous spray solution derived from the formulation of the technical active ingredient in 0.6 ml acetone and 45 ml formulation solution containing 10.6% Emulsogen EL (Registry number 61791-12-6), 42.2% N-methylpyrrolidone, 42.2% dipropylene glycol monomethyl ether (Registry number 34590-94-8) and 0.2% X-77 (Registry number 11097-66-8). The test plants were then grown in a greenhouse under optimum conditions until, 15 days later for post-emergence and 20 days for pre-emergence, the test was evaluated (100=total damage to plant; 0=no damage to plant).
(§2) Alopecurus myosuroides (ALOMY), Avena fatua (AVEFA), Lolium perenne (LOLPE), Setaria faberi (SETFA), Digitaria sanguinalis (DIGSA), Echinochloa crus-galli (ECHCG)

SMILES | pest or weed control at 125 g/ha [%]
CCc1ccc(-c2ccc(Cl)c(Cl)c2)cc1C1=C(O)C(C)(C)OC(C)(C)C1=O [Compound A-42] | 90
CCc1ccc(-c2ccc(Cl)c(F)c2)cc1C1=C(O)C(C)(C)OC(C)(C)C1=O [Compound A-43] | 90
CCc1ccc(-c2ccc(Cl)c(C)c2)cc1C1=C(O)C(C)(C)OC(C)(C)C1=O [Compound A-44] | 60

test system: Lolium perenne (LOLPE); test: as above; assay type: in vivo; conditions: 360 h, rate 125 g/ha, evaluated 15 days after spraying, read-out: Post-emergence activity LOLPE (100=total damage to plant; 0=no damage to plant)
Description: as §1, §2

SMILES | pest or weed control at 125 g/ha [%]
CCc1ccc(-c2ccc(Cl)c(Cl)c2)cc1C1=C(O)C(C)(C)OC(C)(C)C1=O [Compound A-42] | 70
CCc1ccc(-c2ccc(Cl)c(F)c2)cc1C1=C(O)C(C)(C)OC(C)(C)C1=O [Compound A-43] | 80
CCc1ccc(-c2ccc(Cl)c(C)c2)cc1C1=C(O)C(C)(C)OC(C)(C)C1=O [Compound A-44] | 60

test system: Digitaria sanguinalis (DIGSA); test: as above; assay type: in vivo; conditions: 360 h, rate 125 g/ha, evaluated 15 days after spraying, read-out: Post-emergence activity DIGSA (100=total damage to plant; 0=no damage to plant)
Description: as §1, §2

SMILES | pest or weed control at 125 g/ha [%]
CCc1ccc(-c2ccc(Cl)c(Cl)c2)cc1C1=C(O)C(C)(C)OC(C)(C)C1=O [Compound A-42] | 100
CCc1ccc(-c2ccc(Cl)c(F)c2)cc1C1=C(O)C(C)(C)OC(C)(C)C1=O [Compound A-43] | 100
CCc1ccc(-c2ccc(Cl)c(C)c2)cc1C1=C(O)C(C)(C)OC(C)(C)C1=O [Compound A-44] | 70

test system: Echinochloa crus-galli (ECHCG); test: as above; assay type: in vivo; conditions: 360 h, rate 125 g/ha, evaluated 15 days after spraying, read-out: Post-emergence activity ECHCG (100=total damage to plant; 0=no damage to plant)
Description: as §1, §2

SMILES | pest or weed control at 125 g/ha [%]
CCc1ccc(-c2ccc(Cl)c(Cl)c2)cc1C1=C(O)C(C)(C)OC(C)(C)C1=O [Compound A-42] | 100
CCc1ccc(-c2ccc(Cl)c(F)c2)cc1C1=C(O)C(C)(C)OC(C)(C)C1=O [Compound A-43] | 100
CCc1ccc(-c2ccc(Cl)c(C)c2)cc1C1=C(O)C(C)(C)OC(C)(C)C1=O [Compound A-44] | 100

test system: Alopecurus myosuroides (ALOMY); test: as above; assay type: in vivo; conditions: 360 h, rate 125 g/ha, evaluated 15 days after spraying, read-out: Post-emergence activity ALOMY (100=total damage to plant; 0=no damage to plant)
Description: as §1, §2

SMILES | pest or weed control at 125 g/ha [%]
CCc1ccc(-c2ccc(Cl)c(Cl)c2)cc1C1=C(O)C(C)(C)OC(C)(C)C1=O [Compound A-42] | 80
CCc1ccc(-c2ccc(Cl)c(F)c2)cc1C1=C(O)C(C)(C)OC(C)(C)C1=O [Compound A-43] | 80
CCc1ccc(-c2ccc(Cl)c(C)c2)cc1C1=C(O)C(C)(C)OC(C)(C)C1=O [Compound A-44] | 40

test system: Setaria faberi (SETFA); test: as above; assay type: in vivo; conditions: 360 h, rate 125 g/ha, evaluated 15 days after spraying, read-out: Post-emergence activity SETFA (100=total damage to plant; 0=no damage to plant)
Description: as §1, §2

SMILES | pest or weed control at 125 g/ha [%]
CCc1ccc(-c2ccc(Cl)c(Cl)c2)cc1C1=C(O)C(C)(C)OC(C)(C)C1=O [Compound A-42] | 100
CCc1ccc(-c2ccc(Cl)c(F)c2)cc1C1=C(O)C(C)(C)OC(C)(C)C1=O [Compound A-43] | 100
CCc1ccc(-c2ccc(Cl)c(C)c2)cc1C1=C(O)C(C)(C)OC(C)(C)C1=O [Compound A-44] | 30

test system: Avena fatua (AVEFA); test: Example A pre-emergence herbicidal activity, glasshouse pot test; assay type: in vivo; conditions: 480 h, rate 250 g/ha, evaluated 20 days after spraying, read-out: Pre-emergence activity AVEFA (100=total damage to plant; 0=no damage to plant)
Description: as §1, §2

SMILES | pest or weed control at 250 g/ha [%]
CCc1ccc(-c2ccc(Cl)c(Cl)c2)cc1C1=C(O)C(C)(C)OC(C)(C)C1=O [Compound A-42] | 30
CCc1ccc(-c2ccc(Cl)c(F)c2)cc1C1=C(O)C(C)(C)OC(C)(C)C1=O [Compound A-43] | 90
CCc1ccc(-c2ccc(Cl)c(C)c2)cc1C1=C(O)C(C)(C)OC(C)(C)C1=O [Compound A-44] | 20

test system: Lolium perenne (LOLPE); test: as above; assay type: in vivo; conditions: 480 h, rate 250 g/ha, evaluated 20 days after spraying, read-out: Pre-emergence activity LOLPE (100=total damage to plant; 0=no damage to plant)
Description: as §1, §2

SMILES | pest or weed control at 250 g/ha [%]
CCc1ccc(-c2ccc(Cl)c(Cl)c2)cc1C1=C(O)C(C)(C)OC(C)(C)C1=O [Compound A-42] | 50
CCc1ccc(-c2ccc(Cl)c(F)c2)cc1C1=C(O)C(C)(C)OC(C)(C)C1=O [Compound A-43] | 80
CCc1ccc(-c2ccc(Cl)c(C)c2)cc1C1=C(O)C(C)(C)OC(C)(C)C1=O [Compound A-44] | 80

test system: Digitaria sanguinalis (DIGSA); test: as above; assay type: in vivo; conditions: 480 h, rate 250 g/ha, evaluated 20 days after spraying, read-out: Pre-emergence activity DIGSA (100=total damage to plant; 0=no damage to plant)
Description: as §1, §2

SMILES | pest or weed control at 250 g/ha [%]
CCc1ccc(-c2ccc(Cl)c(Cl)c2)cc1C1=C(O)C(C)(C)OC(C)(C)C1=O [Compound A-42] | 100
CCc1ccc(-c2ccc(Cl)c(F)c2)cc1C1=C(O)C(C)(C)OC(C)(C)C1=O [Compound A-43] | 100
CCc1ccc(-c2ccc(Cl)c(C)c2)cc1C1=C(O)C(C)(C)OC(C)(C)C1=O [Compound A-44] | 100

test system: Echinochloa crus-galli (ECHCG); test: as above; assay type: in vivo; conditions: 480 h, rate 250 g/ha, evaluated 20 days after spraying, read-out: Pre-emergence activity ECHCG (100=total damage to plant; 0=no damage to plant)
Description: as §1, §2

SMILES | pest or weed control at 250 g/ha [%]
CCc1ccc(-c2ccc(Cl)c(Cl)c2)cc1C1=C(O)C(C)(C)OC(C)(C)C1=O [Compound A-42] | 80
CCc1ccc(-c2ccc(Cl)c(F)c2)cc1C1=C(O)C(C)(C)OC(C)(C)C1=O [Compound A-43] | 100
CCc1ccc(-c2ccc(Cl)c(C)c2)cc1C1=C(O)C(C)(C)OC(C)(C)C1=O [Compound A-44] | 70

test system: Alopecurus myosuroides (ALOMY); test: as above; assay type: in vivo; conditions: 480 h, rate 250 g/ha, evaluated 20 days after spraying, read-out: Pre-emergence activity ALOMY (100=total damage to plant; 0=no damage to plant)
Description: as §1, §2

SMILES | pest or weed control at 250 g/ha [%]
CCc1ccc(-c2ccc(Cl)c(Cl)c2)cc1C1=C(O)C(C)(C)OC(C)(C)C1=O [Compound A-42] | 100
CCc1ccc(-c2ccc(Cl)c(F)c2)cc1C1=C(O)C(C)(C)OC(C)(C)C1=O [Compound A-43] | 80
CCc1ccc(-c2ccc(Cl)c(C)c2)cc1C1=C(O)C(C)(C)OC(C)(C)C1=O [Compound A-44] | 60

test system: Setaria faberi (SETFA); test: as above; assay type: in vivo; conditions: 480 h, rate 250 g/ha, evaluated 20 days after spraying, read-out: Pre-emergence activity SETFA (100=total damage to plant; 0=no damage to plant)
Description: as §1, §2

SMILES | pest or weed control at 250 g/ha [%]
CCc1ccc(-c2ccc(Cl)c(Cl)c2)cc1C1=C(O)C(C)(C)OC(C)(C)C1=O [Compound A-42] | 100
CCc1ccc(-c2ccc(Cl)c(F)c2)cc1C1=C(O)C(C)(C)OC(C)(C)C1=O [Compound A-43] | 100
CCc1ccc(-c2ccc(Cl)c(C)c2)cc1C1=C(O)C(C)(C)OC(C)(C)C1=O [Compound A-44] | 50
